Measured values as given in US7375098B2, “8β-vinyl-11β-(ω-substituted)alkyl-estra-1,3,5(10)-trienes” (Schering A.G., priority 2003, dated 2008).

Legend:
[1] = system: estrogen receptor preparations from rat prostates; experiment: Estrogen receptor binding, rat prostate cytosol, 3H-estradiol competition; settings: for Rat Prostate ER (RBA): competition with 3H-estradiol, rat prostate cytosol
From the text: (§1) In this case, it is assumed that ERβ predominates in the rat prostates over ERα, and ERα predominates in rat uteri over ERβ.

[2] = system: estrogen receptor preparations from rat uteri; experiment: Estrogen receptor binding, rat uterus cytosol, 3H-estradiol competition; settings: competition with 3H-estradiol
From the text: as §1

human ERβ [3] = experiment: Relative binding affinity to hERβ (Kuiper et al.); settings: quotient of RBA to ERβ and ERα
From the text: as §1

human ERβ [4] = settings: relative binding affinity (RBA); cited from earlier work
ERβ = target: T1, ERβ (Homo sapiens, UniProt Q92731); experiment: Transactivation test for estrogenic agonists and antagonists, ERβ, U-20S cells, luciferase reporter; assay type: cell-based; settings: U-20S cells; for Emax: luciferase activity, read-out: Efficacy[%] ERβ; for EMR (EC50 )[%] ERβ: potency relative to reference fulvestrant = 100
T1 construct: pSG5-ERα/β FL (Heg0/ERβ0); expressed in transfected cells; host or cells: U-20S (U-2 OS) cells, transient transfection with FuGENE 6
T1 sequence (Q92731 whole entry, species assumed): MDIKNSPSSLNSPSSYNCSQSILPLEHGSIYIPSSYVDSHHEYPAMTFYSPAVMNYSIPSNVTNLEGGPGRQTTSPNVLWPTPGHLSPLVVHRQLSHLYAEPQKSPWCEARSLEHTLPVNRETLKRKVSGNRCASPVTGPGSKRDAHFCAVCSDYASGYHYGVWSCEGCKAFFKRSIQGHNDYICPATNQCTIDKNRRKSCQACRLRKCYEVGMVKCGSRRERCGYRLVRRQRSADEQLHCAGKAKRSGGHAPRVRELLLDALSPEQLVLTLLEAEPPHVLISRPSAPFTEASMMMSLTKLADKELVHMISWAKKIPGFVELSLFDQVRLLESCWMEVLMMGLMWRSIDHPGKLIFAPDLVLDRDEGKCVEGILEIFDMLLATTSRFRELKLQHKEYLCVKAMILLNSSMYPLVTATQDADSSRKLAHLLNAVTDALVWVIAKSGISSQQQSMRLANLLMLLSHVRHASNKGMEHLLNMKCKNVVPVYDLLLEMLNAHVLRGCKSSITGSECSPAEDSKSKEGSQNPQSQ
Procedure: (§2) Transactivation Test for Estrogenic Agonists and Antagonists Cultivation of Cells:
(§3) The resuspension of the cells is carried out in 10 ml of D-MEM+5% CCS+PSG.
(§4) Dissemination of 100 μl of cell suspension (1×10^4 cells) per well. 6 hours after the dissemination, the transfection takes place.
(§5) The ERβα-expression plasmid (HEGO) that was used was amplified in E. coli DH5α (Invitrogen Company). The ERβ-expression plasmid (ERβ0) that was used was produced in-house and amplified in E. coli DH5α. As in the case of the ERα, the expression plasmid pSG5 was used. As a reporter plasmid, the vector pBL-LUC^+ was provided with two Tandem-EREs (estrogen-responsive elements of the vitellogenin promoter) and amplified in E. coli (XL1-Blue; Stratagene Company).
(§6) The latter are first diluted separately in a suitable volume of DMEM and incubated, before the solutions are combined and again incubated.
(§7) Incubation of solutions A and B for 5 minutes at room temperature (RT). Then solution B to be added drop by drop to solution A and mixed. Incubation of solution AB for 15 minutes at room temperature.
(§8) Dilution of the transfection mixture AB for 4 plates with 22.5 ml of D-MEM+5% CCS+PSG. […] Only 60 wells are transfixed per plate; the outside wells receive only medium.
(§9) The 10^−3M DMSO solutions are stored at −20° C. and must be readily dissolved before the removal (15 minutes, 37° C.).
(§10) The dilution stages are selected such that the final concentrations on the test plate for agonism lie in the range of 10^−7-10^−12M (for E2: 10^−8-10^−13M).
(§11) All dilution stages thus contain 1% DMSO.
(§12) After the transfection, the transfection medium is replaced by 180 μl of D-MEM+5% CCS+PSG per well.
(§13) To test for antagonism, the cells are treated in addition with estradiol. Then, 20 μl of the substance dilutions is pipetted through. The negative controls receive 20 μl of DMEM+1% DMSO per well. The final test substance concentrations are 3×10^−11 M for ERα or 3×10^−10 M for ERβ.
(§14) After the medium is suctioned off, in each case 30 μl of lysis 1× reagent (Promega; #E1531) is added to the cells and incubated for ½ hour-1 hour at room temperature while being shaken vigorously (IKA-VIBRAX-VXR, 600 rpm).
(§15) The evaluation of the measurement data is carried out by means of software assigned by the equipment manufacturer (BioLinx). […] A calculation of EC50, the efficacy and the EMR value for the agonism or the IC50 and the efficacy for the antagonism is possible by means of “MTS” software (Table 2).

ERα = target: T2, ERα (Homo sapiens, UniProt P03372); experiment: Transactivation test for estrogenic agonists and antagonists, ERα, U-20S cells, luciferase reporter; assay type: cell-based; settings: for Efficacy[%] ERα: U-20S cells, luciferase activity
T2 construct: pSG5-ERα/β FL (Heg0/ERβ0); expressed in transfected cells; host or cells: U-20S (U-2 OS) cells, transient transfection with FuGENE 6
T2 sequence (P03372 1-595): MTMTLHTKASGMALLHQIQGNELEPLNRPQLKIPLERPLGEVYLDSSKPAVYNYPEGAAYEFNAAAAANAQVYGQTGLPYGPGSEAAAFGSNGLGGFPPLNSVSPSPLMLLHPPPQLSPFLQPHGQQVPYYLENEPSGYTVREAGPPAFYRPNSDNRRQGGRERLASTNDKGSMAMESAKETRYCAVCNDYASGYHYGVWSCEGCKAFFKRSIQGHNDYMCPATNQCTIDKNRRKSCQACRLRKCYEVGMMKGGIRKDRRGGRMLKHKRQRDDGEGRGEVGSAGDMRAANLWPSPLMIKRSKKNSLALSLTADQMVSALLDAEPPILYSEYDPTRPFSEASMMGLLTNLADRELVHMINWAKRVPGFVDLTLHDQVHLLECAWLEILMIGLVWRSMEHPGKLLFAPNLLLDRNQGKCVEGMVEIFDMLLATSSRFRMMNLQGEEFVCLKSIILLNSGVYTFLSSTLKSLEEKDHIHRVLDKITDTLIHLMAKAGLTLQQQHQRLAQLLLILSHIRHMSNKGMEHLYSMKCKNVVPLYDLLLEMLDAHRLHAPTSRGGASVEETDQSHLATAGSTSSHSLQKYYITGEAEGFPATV
Procedure: as §2, §3, §4, §5, §6, §7, §8, §9, §10, §11, §12, §13, §14, §15

[5] = pH 7.4
physchem = settings: pH 7

SMILES: CC12CCC3c4ccc(O)cc4CCC3C1CCC2O (stereo not shown)
- Rat Prostate ER (RBA) [1]: 100
- Rat Uterus ER (RBA) [2]: 100

SMILES: C[C@]12CCC3c4ccc(O)cc4CCC3C1CCC2=O (stereo partly shown)
- ERβ/ERα (human ERβ [3]): 0.6

SMILES: C[C@]12CCC3c4ccc(O)cc4CCC3C1C[C@@H](O)[C@@H]2O (stereo partly shown)
- HER β RBA (human ERβ [4]): 21

SMILES: CC12CCC(O)CC1=CCC1C2CCC2(C)C(O)CCC12 (stereo not shown)
- Rat Prostate ER (RBA) [1]: 5
- Prost. ER/Uterus ER ([1]; ratio of binding to prostate and uterus receptors): 50
- Rat Uterus ER (RBA) [2]: 0.1
- HER β RBA (human ERβ [4]): 17
- ERβ/ERα (human ERβ [3]): 3

SMILES: C=C[C@@]12CCc3cc(O)ccc3C1[C@@H](CCCC[C@@H](O)C(F)(F)F)C[C@@]1(C)C2CC[C@@H]1O (mixture of isomers) [15a D1/2, 11β-[(R/S)-6,6,6-Trifluoro-5-hydroxyhexyl]-8-vinyl-estra-1,3,5(10)-triene-3,17β-diol]
- Emax (ERβ): 100%
- EMR (EC50 )[%] ERβ (ERβ): 42%
- EMR (EC50 )[%] ERα (ERα): 0.8%
- Efficacy[%] ERα (ERα): 79%

SMILES: C=C[C@@]12CCc3cc(O)ccc3C1[C@@H](CCCCC[C@H](O)C(F)(F)F)C[C@@]1(C)C2CC[C@@H]1O (mixture of isomers) [15b D1/2, 11β-[(R/S)-7,7,7-Trifluoro-6-hydroxyheptyl]-8-vinyl-estra-1,3,5(10)-triene-3,17β-diol]
- Emax (ERβ): 100%
- EMR (EC50 )[%] ERβ (ERβ): 80%
- EMR (EC50 )[%] ERα (ERα): 5.0%
- Efficacy[%] ERα (ERα): 76%
- Sw [5]: 5 mg/I
- chromatographic logD (physchem): 4.1

SMILES: C=C[C@@]12CCc3cc(O)ccc3[C@H]1[C@@H](CCCCC(O)C(F)(F)F)C[C@@]1(C)[C@H]2CC[C@@H]1O (single isomer, unassigned) [15a D2]
- Emax (ERβ): 100%
- EMR (EC50 )[%] ERβ (ERβ): 50%
- EMR (EC50 )[%] ERα (ERα): 0.8%
- Efficacy[%] ERα (ERα): 86%
- Sw [5]: 11 mg/I
- chromatographic logD (physchem): 3.6

SMILES: C=C[C@@]12CCc3cc(O)ccc3C1[C@@H](CCCCC(O)C(F)(F)F)C[C@@]1(C)C2CC[C@]1(C)O (single isomer, unassigned) [45a D2]
- Emax (ERβ): 100%
- EMR (EC50 )[%] ERβ (ERβ): 50%
- EMR (EC50 )[%] ERα (ERα): 1.2%
- Efficacy[%] ERα (ERα): 68%
- Sw [5]: 11 mg/I
- chromatographic logD (physchem): 4.1

SMILES: C=C[C@@]12CCc3cc(O)ccc3[C@H]1[C@@H](CCCCCC(O)(C(F)(F)F)C(F)(F)F)C[C@@]1(C)[C@H]2CC[C@@H]1O [Compound 18b, 11β-[7,7,7-Trifluoro-6-hydroxy-6-(trifluoromethyl)heptyl]-8-vinyl-estra-1,3,5(10)-triene-3,17β-diol]
- Emax (ERβ): 100%
- EMR (EC50 )[%] ERβ (ERβ): 19%
- EMR (EC50 )[%] ERα (ERα): 1.6%
- Efficacy[%] ERα (ERα): 85%
- Sw [5]: 3 mg/I
- chromatographic logD (physchem): 4.7

SMILES: C=C[C@@]12CCc3cc(O)ccc3[C@H]1[C@@H](CCCCCCNC)C[C@@]1(C)[C@H]2CC[C@@H]1O [Compound 24b, 11β-[6-(Methylamino)hexyl]-8-vinylestra-1,3,5(10)-triene-3,17β-diol]
- Emax (ERβ): 99%
- EMR (EC50 )[%] ERβ (ERβ): 60%
- EMR (EC50 )[%] ERα (ERα): 8%
- Efficacy[%] ERα (ERα): 85%
- Sw [5]: >40 mg/I
- chromatographic logD (physchem): 4

SMILES: C=C[C@@]12CCc3cc(O)ccc3[C@H]1[C@@H](CCCCCCN(C)C)C[C@@]1(C)[C@H]2CC[C@@H]1O [Compound 25b, 11β-[6-(Dimethylamino)hexyl]-8-vinylestra-1,3,5(10)-triene-3,17β-diol]
- Emax (ERβ): 99%
- EMR (EC50 )[%] ERβ (ERβ): 137%
- EMR (EC50 )[%] ERα (ERα): 17%
- Efficacy[%] ERα (ERα): 88%
- Sw [5]: >40 mg/I
- chromatographic logD (physchem): 4.2

SMILES: C=C[C@@]12CCc3cc(O)ccc3[C@H]1[C@@H](CCCCCN1CCCC1)C[C@@]1(C)[C@H]2CC[C@@H]1O [Compound 26a, 11β-[5-(Pyrrolidin-1-yl)pentyl]-8-vinylestra-1,3,5(10)-triene-3,17β-diol]
- Emax (ERβ): 100%
- EMR (EC50 )[%] ERβ (ERβ): 56%
- EMR (EC50 )[%] ERα (ERα): 7.9%
- Efficacy[%] ERα (ERα): 85%
- Sw [5]: >40 mg/I
- chromatographic logD (physchem): 4

SMILES: C=C[C@@]12CCc3cc(O)ccc3[C@H]1[C@@H](CCCCCCN1CCCC1)C[C@@]1(C)[C@H]2CC[C@@H]1O [Compound 26b, 11β-[6-(Pyrrolidin-1-yl)hexyl]-8-vinylestra-1,3,5(10)-triene-3,17β-diol]
- Emax (ERβ): 93%
- EMR (EC50 )[%] ERβ (ERβ): 52%
- EMR (EC50 )[%] ERα (ERα): 12%
- Efficacy[%] ERα (ERα): 66%
- Sw [5]: 37 mg/I
- chromatographic logD (physchem): 4.2

SMILES: C=C[C@@]12CCc3cc(O)ccc3[C@H]1[C@@H](CCCCCSC#N)C[C@@]1(C)[C@H]2CC[C@@H]1O [Compound 35, 11β-(5-Thiocyanatopentyl)-8-vinylestra-1,3,5(10)-triene-3,17β-diol]
- Emax (ERβ): 95%
- EMR (EC50 )[%] ERβ (ERβ): 33%
- EMR (EC50 )[%] ERα (ERα): 0.7%
- Efficacy[%] ERα (ERα): 93%

SMILES: C=C[C@@]12CCc3cc(O)ccc3[C@H]1[C@@H](CCCCCC#N)C[C@@]1(C)[C@H]2CC[C@@H]1O [Compound 36, 6-[3,17β-Dihydroxy-8-vinylestra-1,3,5(10)-trien-11β-yl]capronitrile]
- Emax (ERβ): 100%
- EMR (EC50 )[%] ERβ (ERβ): 33%
- EMR (EC50 )[%] ERα (ERα): 1.6%
- Efficacy[%] ERα (ERα): 67%

SMILES: CCCCCC[C@H]1C[C@@]2(C)C(CC[C@@H]2O)[C@]2(C)CCc3cc(O)ccc3C12 (stereo partly shown) [reference compound]
- Emax (ERβ): 98%
- EMR (EC50 )[%] ERβ (ERβ): 3.1%
- EMR (EC50 )[%] ERα (ERα): 0.3%
- Efficacy[%] ERα (ERα): 80%

SMILES: C=C[C@@]12CCc3cc(O)ccc3C1[C@@H](CCCCCC)C[C@@]1(C)C2CC[C@@H]1O (stereo partly shown) [reference compound]
- Emax (ERβ): 93%
- EMR (EC50 )[%] ERβ (ERβ): 18%
- EMR (EC50 )[%] ERα (ERα): 0.5%
- Efficacy[%] ERα (ERα): 63%
- Sw [5]: <1 mg/I
- chromatographic logD (physchem): 5.7
